# Test results published in patent US20240373850A1, “Compositions comprising resinous exudate metabolites from plants of the genus Adesmia, used to control and treat infections in plant crops; and methods for controlling infections in plant crops” (PONTIFICIA UNIVERSIDAD CATÓLICA DE VALPARAÍSO, priority 2021, published 2024).
# Where “and” joins values, the source holds several entries; their conditions need not be identical. Equal values may be shown once. Read-outs that look alike come from different tables or passages of the source.
# What was measured:
# [1] = tested on: Pseudomonas syringae pv actinidiae code 770; assay: Antibacterial micro-dilution test (MIC), Psa 770; type: cell-based; details: read-out: MIC Psa 770
# Protocol: (§1) Antibacterial test of secondary metabolites isolated from the resinous exudates of Adesmia plants against the pathogen (Psa), from isolates made in Chile and Italy, also tested on other bacteria of interest, in vitro.
# (§2) All strains were cultivated in Nutrient culture medium supplemented with 3% sucrose (SNA), and incubated at 27° C. The bacterial inoculum was produced in Mueller-Hinton (MH) culture medium in glass test tubes and incubated at 27° C. in an orbital shaker at 150 rpm in the dark for 24 hours. A stock solution of each molecule was prepared to obtain a concentration of 2000 mg/L, later they were diluted in a 96-well microplate with MH culture medium and thus obtain the different concentrations of […] of each molecule. The antibacterial activity of the molecules was determined by the method of micro-dilution of the substance to be tested. Four controls were used: negative control (only MH liquid culture medium inoculated with bacteria); positive control (liquid MH culture medium adding Chloramphenicol at the same concentrations tested inoculated with bacteria and in the case of the Italian strain, copper sulfate was added), negative control (1) only substances plus solvent (liquid MH culture medium plus ethanol at 1% without inoculating bacteria) and a white control (only MH liquid culture medium, without inoculating). The bacterial suspension of each of the strains was adjusted to 0.5 McFarland (1×10^8 cfu/ml), inoculating 1.5 μL per well in the microplate and subsequently incubated at 27° C. for 24 hours.
# (§3) The absorbances or optical density (O.D) were converted to percentage of antibacterial inhibition (PIAB) using the following formula:
# (§4) In addition, […] aliquots of each of the concentrations were swept in a petri dish to observe the presence or absence of Psa colonies after 48 hours.
# [2] = tested on: Pseudomonas syringae pv actinidiae code 8.43; assay: Antibacterial micro-dilution test (MIC), Psa 8.43; type: cell-based; details: read-out: MIC Psa 8.43
# Protocol: as §1, §2, §3, §4
# Erwinia carotovora = assay: Antibacterial micro-dilution test (MIC), E.c; type: cell-based; details: Pectobacterium carotovorum, read-out: MIC E.c
# Protocol: as §1
# (§5) All strains were cultivated in Nutrient culture medium supplemented with 3% sucrose (SNA), and incubated at 27° C. The bacterial inoculum was produced in Mueller-Hinton (MH) culture medium in glass test tubes and incubated at 27° C. in an orbital shaker at 150 rpm in the dark for 24 hours. A stock solution of each molecule was prepared to obtain a concentration of 2000 mg/L, later they were diluted in a 96-well microplate with MH culture medium and thus obtain the different concentrations of […] of each molecule. The antibacterial activity of the molecules was determined by the method of micro-dilution of the substance to be tested. […]
# (§6) Through the evaluation of absorbance at 600 nm in an Accu Reader M965 spectrophotometer, those treatments that were effective in inhibiting growth compared to the negative control were selected, to subsequently quantify the percentage of inhibition. The absorbances or optical density (O.D) were converted to percentage of antibacterial inhibition (PIAB) using the following formula: […]
# Bacillus subtilis = assay: Antibacterial micro-dilution test (MIC), B.s; type: cell-based; details: read-out: MIC B.s
# Protocol: as §1, §2, §6
# E. carotovora = assay: Membrane integrity by Sytox Green staining, E. carotovora; type: cell-based, Erwinia carotovora; details: 50 ug/mL, 3 hours of incubation, fluorescence microscope
# Protocol: FIG. 11: Effect of 2′, 4′ dihydroxychalcone on the integrity of the cell membrane of E. carotovora. The bacteria were incubated in a culture medium at 22 QC in the presence of 30% (v/v) ethanol (a), 5% methanol; 50 ug/mL of the compound against E. carotovora seen in bright field (b) and seen under fluorescence (c) for 3 hours of incubation.
# (§7) Determination of the effect of compound 2 4′ dihydroxychalcone (compound No. 4) on the integrity of the membrane of Gram negative and Gram positive bacteria.
# (§8) Because several studies have established that phenolic compounds destroy the bacterial membrane, the effect of the major compound […] (compound No. 4) present in the exudate of plants of the Adesmia genus was evaluated, which was attributes the antibacterial activity that they present against Pseudomonas syringae pv actinidiae (Psa). It was tested against Gram-negative bacteria of agricultural importance Erwinia carotovora by Sytox Green staining. […] In this way, through the observation of nuclei stained with Sytox in the fluorescence microscope (100×), it is evident that the mechanism of action of the compound against both the Gram positive bacteria S. aureus and Gram negative E. carotovora is the destruction of the plasma membrane (FIG. 11c).
# S. aureus = assay: Membrane integrity by Sytox Green staining, S. aureus; type: cell-based; details: 50 ug/mL, 3 hours of incubation, fluorescence microscope
# Protocol: as §7, §8
# [3] = tested on: Pseudomonas syringae pv actinidiae (Psa) 190770; assay: In vivo antibacterial activity test in Kiwi seedlings, phytopathological evaluation; parameters: species or system Kiwi A. chinensis; details: 500 ug/mL
# Source text: In vivo antibacterial activity tests of the compounds of the present invention, in Kiwi crops.
# It is important to point out that the Chilean patent application 0881-2018 of the same inventors of the present invention, describes a procedure to prepare a composition obtained from resinous exudates of the aerial parts of plants of the genus Adesmia, to control in vitro and in vivo infections. in plant crops. In addition, methods for controlling infections in plant crops are described, which comprise applying said composition to crops infected with various microorganisms. […] For this, Kiwi A. chinensis seedlings from in vitro propagation were used. The bacterium Pseudomonas syringae pv actinidiae (Psa) 190770 used in the in vitro tests was used. The plants were kept in aseptic chambers with 50% relative humidity, under controlled temperature conditions (20° C.±2) and a photoperiod regimen of 12 hours of light and 12 hours of darkness. Both the application of the treatments and inoculation were applied in the summer season. The bacterial inoculum was sprayed on the surface of the leaves of the plants, which had been subjected to small wounds on the leaves. […] Control plants were only sprayed with sterile distilled water and kept isolated from the others treated with Psa.
# (§9) The evaluations were made periodically to observe the symptoms of the plant (Table No. 4) and the samples were taken at the third and fourth week from the inoculation, in which the leaves were collected at the moment of beginning to see symptoms or in their defect a month after starting the trial, they were frozen in RNALater® and stored at −80° C. for RNA isolation.
# [4] = tested on: Pseudomonas syringae pv actinidiae (Psa); assay: Absolute quantification of Psa infecting kiwi plants by qRT-PCR; type: in vivo, Kiwi A. chinensis; details: leaves, 3-4 weeks after inoculation, replicate runs; listed as Treatment 3
# Protocol: as §9
# For this, the total RNA of the problem samples was isolated from 80 to 100 mg of tissue from the leaves of A. chinensis belonging to the applied treatments, which were extracted with the E.Z.N.A.® PLANT RNA Kit using the protocol for difficult samples described by the manufacturer and the concentration of the extracted material was quantified through the Nanodrop equipment. The qRT-PCR was performed using the AriaMx Realtime PCR System equipment, using the Takion Sybrgreen+One step converter kit and specific primers synthesized by IDT (Integrated DNA Technologies) (See Table 6).
# The program conditions were 48° C. for 10 min, 95° C. for 3 min, followed by 40 cycles of 95° C. for 10 sec, alignment and extension at 60° C. for 50 sec; then the melting curves 95° C. for 30 sec., 65° C. for 30 sec., and 95° C. for 30 sec. […] The number of copies/ng of Total Psa RNA were calculated through the equation of the straight line provided by the equipment, which was analyzed with the standard curve included in each qRT-PCR run.
# [5] = tested on: Pseudomonas syringae syringae; assay: Antibacterial micro-dilution test (MIC), Pss; type: cell-based; details: MH medium, 27° C., 24 hours
# Protocol: as §1, §5, §6
# [6] = micro-dilution, MH medium, 27° C., 24 hours
"MIC [1, 6] [µg/mL]","MIC [2, 6] [µg/mL]",MIC [5] [µg/mL],MIC (Bacillus subtilis; [6]) [µg/mL],Structure (SMILES),MIC ([1]; 24 h) [µg/mL],MIC ([2]; 24 h) [µg/mL],further results
–,–,–,–,"O=C(/C=C/c1ccccc1)c1ccc(O)cc1O [Compound 4, 2′,4′-dihydroxychalcone]",≥ 200,≥ 50,"MIC (Erwinia carotovora; 24 h): ≥ 10 µg/mL; MIC (Bacillus subtilis; 24 h): ≥ 10 µg/mL; effect on the integrity of the plasmatic membrane (E. carotovora): alteration of the plasmatic membrane was observed; effect on the integrity of the plasmatic membrane (S. aureus): alteration of the plasmatic membrane was observed; in vivo inhibition of the disease caused by Psa in Kiwi cultures [3]: in vivo inhibition of the disease; plants without visual symptoms of the disease (level 0, healthy plants) ([3]; preventive treatment): 60%; Percentage of incidence ([3]; preventive, sprayed 24 hours before inoculation): 40%; Level of Incidence according to category (Maximum value 3) ([3]; preventive, sprayed 24 hours before inoculation, damage scale 0-3 of Table No. 4): 0.4; Ct [4]: 29.17 and 27.80 and 30.01"
–,–,–,–,"CC(C)=CCc1c(O)cc(O)c2c1O[C@H](c1ccccc1)CC2=O [Compound 2, glabranin]",≥ 400,–,–
≥ 400,≥ 1600,≥ 50,≥ 10,"COc1ccc(C(=O)CCc2ccccc2)c(OC)c1 [Compound 9, 2′,4′-dimethoxydihydrochalcone]",–,–,MIC (Erwinia carotovora; [6]): ≥ 10 µg/mL
≥ 50,≥ 50,≥ 50,≥ 10,"O=C(/C=C/c1ccccc1)c1c(O)cc(O)cc1O [Compound 10, 2′,4′, 6′-trihydroxy chalcone]",–,–,–
–,–,–,–,CC(C)=CCc1cc(C(=O)CCc2ccccc2)c(O)cc1O [Compound 1],≥ 400,≥ 200,–
–,–,–,–,"CC(C)=CCc1c(O)ccc(C(=O)/C=C/c2ccccc2)c1O [Compound 3, isochordine]",≥ 1600,–,–
